Consider three molecules from article PMC6437269, “OXA-48-Mediated Ceftazidime-Avibactam Resistance Is Associated with Evolutionary Trade-Offs” (mSphere, 2019).

In brackets after ≈: the same amount, converted by molar mass. Read-outs that look alike come from different tables or passages of the source. Bounds are passed on as bounds.

The target of one data set is T1, OXA-48 (Klebsiella pneumoniae, UniProt Q6XEC0).
T1 construct: made in house
Description: biochemical. The conditions noted are these: nitrocefin reporter substrate; enzyme and inhibitor incubated 5 min; error = 95% CI.

Data set [1] has as its target T2, OXA-48:P68A (Klebsiella pneumoniae, UniProt Q6XEC0, P68A). Description: IC50 with nitrocefin as reporter substrate, OXA-48:P68A. The data set is classed as biochemical.
Data set [2] concerns the target T2, OXA-48:P68A. In words: Steady-state enzyme kinetics, OXA-48:P68A. Format: biochemical.
The test system of data set [3] is MP101 (MP100 transformed with p50579417_3_OXA-48). Description: MIC determination, MP101 (MG1655 with native OXA-48 plasmid). The data set is classed as cell-based, Escherichia coli. The text has this: Mueller-Hinton (MH) agar and broth were purchased from Thermo Fisher Scientific (East Grinstead, United Kingdom). Luria-Bertani (LB) broth, LB agar, ampicillin, amoxicillin, cefepime, CAZ, imipenem, meropenem, piperacillin, and tazobactam were obtained from Sigma-Aldrich (St. Louis, MO). Nitrocefin was purchased from Merck (Darmstadt, Germany). The characteristics of the clinical E. coli strain 50579417 harboring the OXA-48 plasmid (p50579417_3_OXA-48) have been described previously ([61], [62]). The plasmid p50579417_3_OXA-48 was conjugated into rifampin-resistant E. coli TOP10 and subsequently isolated using a plasmid mini-purification kit (Qiagen, Germany). E. coli MG1655 (DA4201) was electroporated with p50579417_3_OXA-48 as published previously ([63]). Transformants positive for blaOXA-48 were checked by PCR using REDTaq ready mix (Sigma-Aldrich, St. Louis, MO) and preOXA-48 primers ([61]).
(§1) For MIC determination, single colonies were suspended in 0.9% saline buffer to a 0.5 McFarland standard and further diluted 1:100 in MH broth. Fifty microliters of the bacterial suspension was loaded onto in-house-designed and premade Sensititre microtiter plates (TREK Diagnostic Systems/Thermo Fisher Scientific, East Grinstead, United Kingdom). The plates were incubated for 20 h at 37°C. Antibiotic susceptibility testing was performed in duplicates.

For a further data set, the system named is E. coli TOP10. In words: microbe, parasite or virus in culture. The conditions noted are these: Escherichia coli, Table 3, read-out: MIC. The data set is classed as cell-based. The protocol: as §1
Data set [4] has as its system MP104 (E. coli TOP10 expressing native OXA-48). In words: MIC determination, TOP10 expressing native OXA-48 (MP104). The conditions noted are these: Escherichia coli; Table 3; MP104, native OXA-48 in pCR-blunt II TOPO. Format: cell-based. The protocol: as §1
For a functional resistance profile, the native and mutated blaOXA-48 genes were cloned in the pCR-blunt II-TOPO vector (Invitrogen, CA) and expressed in E. coli TOP10 (Invitrogen, CA). The PCR product was obtained by Phusion High Fidelity PCR mastermix with High Fidelity buffer (New England Biolabs, MA) and preOXA-48 primers ([61]). Transformants were selected on LB agar plates containing 50 or 100 mg/liter ampicillin. Insertion size was verified by Sanger sequencing using M13 forward (5′-[…]-3′) and reverse (5′-[…]-3′) primers.

Data set [5] has as its system MP102 (MP101 subjected to CAZ). Description: MIC determination, MP102 (MP101 selected on CAZ). The data set is classed as cell-based, Escherichia coli. The protocol: (§2) Ten milliliters of an MP101 culture was grown in MH broth at 37°C overnight and then centrifuged for 10 min at 4,000 × g, and the pellet was suspended in 1 ml MH broth. One hundred microliters was plated on MH agar containing increasing concentrations of either CAZ alone or in combination with AVI up to 2 mg/liter. For CAZ-AVI, we utilized the clinical ratio of 4:1, respectively. Colonies growing on the highest concentration were recovered and grown in a fresh overnight culture (MH broth) and subsequently plated on concentrations of CAZ or CAZ-AVI up to 32 mg/liter.
as §1

The test system of data set [6] is MP107 (MP100 transformed with p50579417_3_OXA-48-CAZ). Description: MIC determination, MP107 (MG1655 with CAZ-adapted plasmid). The conditions noted are these: Escherichia coli; Table 6; MP107, adapted plasmid p50579417-OXA-48-CAZ. The data set is classed as cell-based. The protocol: as §1
Data set [7] relates to MP105 (E. coli TOP10 expressing OXA-48:P68A). In words: microbe, parasite or virus in culture. The data set is classed as cell-based.
A further data set has as its system E. coli MG1655 (MP100). Description: microbe, parasite or virus in culture. Format: cell-based, Escherichia coli. On the procedure: as §1
Data set [8] concerns MP108 (MP100 transformed with p50579417_3_OXA-48-CAZ-AVI). In words: MIC determination, MP108 (MG1655 with CAZ-AVI-adapted plasmid). Format: cell-based. The conditions noted are these: Escherichia coli; Table 6; MP108, adapted plasmid p50579417-OXA-48-CAZ-AVI. On the procedure:
as §1

The subject of data set [9] is MP103 (MP101 subjected to CAZ-AVI). In words: MIC determination, MP103 (MP101 selected on CAZ-AVI). Format: cell-based, Escherichia coli. On the procedure: as §2, §1
The data set “crystal structure” concerns the molecule itself. Description: crystal structure.
Setting [10] is: substrate hydrolysis, 25°C, pH 7.0, error = 95% CI.

T1 sequence (Q6XEC0 23-265 limits assumed): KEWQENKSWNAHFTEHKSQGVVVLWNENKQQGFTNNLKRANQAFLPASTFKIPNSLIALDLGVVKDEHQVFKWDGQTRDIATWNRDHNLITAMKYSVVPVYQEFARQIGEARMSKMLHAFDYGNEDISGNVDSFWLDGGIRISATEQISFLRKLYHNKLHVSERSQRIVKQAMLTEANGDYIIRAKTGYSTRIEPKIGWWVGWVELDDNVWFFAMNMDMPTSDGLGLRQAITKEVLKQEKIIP

Regarding `C[C@]1(Cn2ccnn2)[C@H](C(=O)O)N2C(=O)C[C@H]2S1(=O)=O` [Tazobactam, tazobactam], the IC50 against OXA-48 stood at 95 ± 9 µM; against OXA-48:P68A [1] (nitrocefin reporter substrate, enzyme and inhibitor incubated 5 min, error = 95% CI), 4 ± 1 µM. Besides, the “reduction in the IC50” value on OXA-48:P68A [1] (P68A compared to native OXA-48, 5 min) is on record as over 20 fold.
As to `CC(C)(O/N=C(\C(=O)N[C@@H]1C(=O)N2C(C(=O)[O-])=C(C[n+]3ccccc3)CS[C@H]12)c1csc(N)n1)C(=O)O` [CAZ, ceftazidime], at OXA-48:P68A [2] (P68A compared to native OXA-48), the “increased catalytic efficiency (kcat/Km)” value is on record as over 10 fold. Moreover, the Michaelis constant (Km) at OXA-48:P68A [2] (setting [10]) is 220 ± 50 µM. Further, at OXA-48:P68A [2] (setting [10]), the kcat came to 26 ± 3 s⁻¹. In addition, the MIC in data set [3] (Escherichia coli, Table 2, strain MP101, duplicates, read-out: MIC) stood at 0.25 µg/mL (≈ 0.457 µM); in data set [3] (Table 6, MP101, native plasmid), 0.25 µg/mL (≈ 0.457 µM); in the data set on E. coli TOP10 it was 1 µg/mL (≈ 1.83 µM); in data set [4], 0.5 µg/mL (≈ 0.915 µM); in data set [5] (Escherichia coli, Table 2, strain MP102, after two-step CAZ selection), 32 µg/mL; in data set [6], 16 µg/mL (≈ 29.3 µM). For the same molecule, the MIC in data set [7] (Escherichia coli, Table 3, MP105, OXA-48:P68A in pCR-blunt II TOPO) worked out at 16 µg/mL (≈ 29.3 µM); in the data set with E. coli MG1655 (MP100) (Escherichia coli, MG1655, Table 2, strain MP100, duplicates, read-out: MIC) it was 0.25 µg/mL (≈ 0.457 µM); against E. coli MG1655 (MP100) (Table 6, MP100), 0.25 µg/mL (≈ 0.457 µM); in data set [8], 32 µg/mL (≈ 58.5 µM); in [9] (Escherichia coli, Table 2, strain MP103, after two-step CAZ-AVI selection) it was 32 µg/mL. For the same molecule, in data set [5] (MP102 versus MP101), the “MIC increase after CAZ selection” value was 128 fold. Also, the “MIC increase by P68A substitution” value in data set [7] (MP105 versus native OXA-48 (MP104)) is reported as 32 fold. Further, the “MIC increase after CAZ-AVI selection” value in data set [9] (MP103 versus MP101) is 128 fold.

B1: OXA-48:P68A (enzyme)
chain: KEWQENKSWNAHFTEHKSQGVVVLWNENKQQGFTNNLKRANQAFLAASTFKIPNSLIALDLGVVKDEHQVFKWDGQTRDIATWNRDHNLITAMKYSVVPVYQEFARQIGEARMSKMLHAFDYGNEDISGNVDSFWLDGGIRISATEQISFLRKLYHNKLHVSERSQRIVKQAMLTEANGDYIIRAKTGYSTRIEPKIGWWVGWVELDDNVWFFAMNMDMPTSDGLGLRQAITKEVLKQEKIIP
notes: also called OXA-48:P68A-CAZ; OXA-48:P68A-AVI; source: E. coli Rosetta 2(DE3)/pLysS, purified (>95% purity)
B1: the binding result in “crystal structure” was “binds”.

As a reminder, the IC50 is the concentration that inhibits the measured activity by half. Higher therefore signals lower potency. By Km is commonly meant the substrate concentration at which the rate is half of its maximum. For orientation: kcat means the number of substrate molecules converted per active site and unit of time at saturation.
